Counter-ions that a name gives are not always drawn. Like-named read-outs stand apart in the source and are kept apart here.

Assay [1] has as its system tumor cell lines (human erythroleukemia K562, murine melanoma B16). Description: Tumor cell growth (test 3: proliferation of human erythroleukemia K562, murine melanoma B16; MTT). Type of assay: cell-based. The settings on record: read-out: IC50 tumor cell growth (upper and lower limits).
Method: Proliferation of tumor cell lines (human erythroleukemia K562, murine melanoma B16).
Test 3 allows to investigate the inhibitory effect of the present compounds on a generic proliferation pathway, independent from immune-specific growth factors.
Tumor cells were collected in the logarithmic phase of growth and seeded in triplicate in flat bottomed microculture plates at the concentration of 1×10^4 in the presence or absence of different concentrations of the test compound. After 48 h incubation at 37° C. in 5% CO2, the cell viability was evaluated by the MTT colorimetric method according to Ferrari et al., J. Immunol.
The concentration inhibiting 50% (IC50) of the cell proliferation in the different settings is calculated for the test compounds and the reference standard UP.
A further assay deals with murine splenocytes. Put plainly: Lymphocyte proliferation (tests 1 and 2: murine splenocytes induced by ConA / by irradiated allogenic spleen cells, MLR). In kind it is cell-based. The settings on record: for IC50: Mus musculus, Splenocyte, read-out: IC50 lymphocyte proliferation (upper and lower limits); for TI (therapeutic index): ratio of mean IC50 on tumor cells growth (test 3) to IC50 on lymphocytes proliferation (tests 1 and 2).

[2] abbreviates: test 3, mean IC50 on tumor cells (K562, B16), 48 h, MTT, limits in parentheses.
Where [3] appears, read: tests 1 and 2, [3H]thymidine uptake, ConA 72 h, MLR 96 h, limits in parentheses.

Method for murine splenocytes: Proliferation of murine splenocytes induced by the mitogen Concanavaline A.
Proliferation of murine splenocytes induced by irradiated allogenic murine spleen cells (MLR).
Tests 1 and 2 allow the study of the compounds on proliferation models mediated by T-cell growth factors (e.g. IL-2) and are considered immunologically specific.
Spleens were aseptically removed from C57B1/6 mice and a cell suspension prepared in complete medium. Cell viability was evaluated by trypan blue exclusion.
Spleen cells (4×10^5) were cultured in triplicate in a volume of 0.15 ml, in flat bottomed microculture plates, in the absence or presence of an optimal concentration of ConA (1.7 microgr/ml) and of different concentrations of the test compound. Cultures were incubated for 72 h at 37° C. in a humidified, 5% CO2 incubator; 18 h before termination of the cultures, 0.2 microCi of [methyl-^3 H]thymidine were added to each well. Cells were harvested on glass fiber filters and the [^3 H]TdR uptake (cpm) quantified in a liquid scintillation counter.
Spleens were aseptically removed from C57B1/6 mice (responders) and Balb/c mice (stimulators), and cell suspensions prepared in complete medium. Responder cells (1×10^6) were cocultured in triplicate with irradiated (1500R) stimulator cells (5×10^5) in a volume of 0.15 ml in the presence or absence of different concentrations of the test compound, in flat bottomed microculture plates. Cultures were incubated for 96 h at 37° C. in a humidified, 5% CO2 incubator; the last 18 h in the presence of 0.2 microCi of ^3 H-TdR.
Cells were harvested on glass fiber filter and the ^3 H-TdR uptake (cpm) quantified in a liquid scintillation counter.
The concentration inhibiting 50% (IC50) of the cell proliferation in the different settings is calculated for the test compounds and the reference standard UP. The ratio between the mean IC50 values on tumor cells growth (test 3) and the IC50 on lymphocytes proliferation (measured by test 1 and 2) produces the therapeutic index (TI) of the compounds.

Take `CCCCCCCCCCCC1=NC(=Cc2[nH]c(-c3ccc[nH]3)cc2OCC)C=C1.Cl` [FCE 28512, 4-ethoxy-5-[(5-undecyl-2H-pyrrol-2-ylidene)methyl]-2,2'-bi-1H-pyrrole, hydrochloride]: the IC50 in assay [1] (K562, 48 h) came to 0.511 µg/mL; in the assay with murine splenocytes it was 0.0023 µg/mL. Also, the “TI (therapeutic index)” value in the assay on murine splenocytes is 222.
With `CCCCCCCCCCCCCC1=NC(=Cc2[nH]c(-c3ccc[nH]3)cc2OC)C=C1.Cl` [FCE 28526, 4-methoxy-5-[(5-tridecyl-2H-pyrrol-2-ylidene)methyl]-2,2'-bi-1H-pyrrole, hydrochloride], the IC50 in assay [1] (setting [2]) came out at 0.584 µg/mL; in the assay with murine splenocytes (setting [3]), 0.002 µg/mL. Also, the “TI (therapeutic index)” value with murine splenocytes was determined as 290.
Turning to `CCCCCCCCCCCCCC1=NC(=Cc2[nH]c(-c3ccc[nH]3)cc2OCC)C=C1.Cl` [FCE 28733, 4-ethoxy-5-[(5-tridecyl-2H-pyrrol-2-ylidene)methyl]-2,2'-bi-1H-pyrrole, hydrochloride], the IC50 in assay [1] (K562, 48 h) came out at 0.859 µg/mL. Also, in the assay on murine splenocytes, the IC50 turned out to be 0.0051 µg/mL and the “TI (therapeutic index)” value is reported as 168.
In the case of `CCCCCCCCCCCC1=NC(=Cc2[nH]c(-c3ccc[nH]3)cc2OCCCC)C=C1` [FCE 28789, 4-buthoxy-5-[(5-undecyl-2H-pyrrol-2-ylidene)methyl]-2,2'-bi-1H-pyrrole, hydrochloride], the IC50 was determined as 0.784 µg/mL in assay [1] (setting [2]) and 0.0119 µg/mL with murine splenocytes (setting [3]). Moreover, the “TI (therapeutic index)” value in the assay on murine splenocytes was found to be 66.
Take `CCCCCCCCCCCC1=NC(=Cc2[nH]c(-c3ccc[nH]3)cc2OCc2ccccc2)C=C1.Cl` [FCE 29002, 4-benzyloxy-5-[(5-undecyl-2H-pyrrol-2-ylidene)methyl]-2,2'-bi-1H-pyrrole, hydrochloride]: the IC50 in assay [1] (K562, 48 h) turned out to be 5.8 µg/mL. In addition, in the assay with murine splenocytes, the IC50 came out at 0.0301 µg/mL and the “TI (therapeutic index)” value came out at 193.
For `CCCCCCCCCCCC1=NC(=Cc2[nH]c(-c3ccc[nH]3)cc2OC)C=C1.Cl` [UP, 4-methoxy-5-[(5-undecyl-2H-pyrrol-2-ylidene)methyl]-2,2'-bi-1H-pyrrole, hydrochloride, reference compound], the IC50 in assay [1] (K562, 48 h) was 0.106 µg/mL. In the assay on murine splenocytes, the IC50 is 0.0029 µg/mL and the “TI (therapeutic index)” value is given as 36.

These data come from patent US5691334A, “Pyrrolydenemethyl-derivatives and process for their preparation” (Pharmacia & Upjohn S.p.A., priority 1993, dated 1997).
